Assay type in all cases: functional, Mus musculus
Assay [1] concerns P388. Description: Number of Survivors determined for antitumor activity against P388 Lymphocytic Leukemia system on day 5 at a dose of 480 mg/kg(6 out of 6).
In assay [2] the test system is P388. The experiment in a line: Survival rate of the animals determined for antitumor activity against P388 Lymphocytic Leukemia system at a dose of 120 mg/kg.
In assay [3] the test system is P388. The experiment in a line: Weight difference observed in survivors treated for antitumor activity against P388 Lymphocytic Leukemia system at a dose of 15 mg/kg.
Assay [4] deals with P388. The experiment in a line: Weight difference observed in survivors treated for antitumor activity against P388 Lymphocytic Leukemia system at a dose of 240 mg/kg.
Assay [5] deals with P388. Description: Weight difference observed in survivors treated for antitumor activity against P388 Lymphocytic Leukemia system at a dose of 480 mg/kg.
For assay [6], the system named is P388. The experiment in a line: Weight difference observed in survivors treated for antitumor activity against P388 Lymphocytic Leukemia system at a dose of 60 mg/kg.
Assay [7] concerns P388. Description: Survival rate of the animals determined for antitumor activity against P388 Lymphocytic Leukemia system at a dose of 240 mg/kg.
For assay [8], the system named is P388. The experiment in a line: Weight difference observed in survivors treated for antitumor activity against P388 Lymphocytic Leukemia system at a dose of 30 mg/kg.
Assay [9] deals with P388. The experiment in a line: Number of Survivors determined for antitumor activity against P388 Lymphocytic Leukemia system on day 5 at a dose of 30 mg/kg (6 out of 6).
In assay [10] the test system is P388. The experiment in a line: Survival rate of the animals determined for antitumor activity against P388 Lymphocytic Leukemia system at a dose of 60 mg/kg.
The test system of assay [11] is P388. The experiment in a line: Number of Survivors determined for antitumor activity against P388 Lymphocytic Leukemia system on day 5 at a dose of 15 mg/kg (6 out of 6).
Assay [12] concerns P388. The experiment in a line: Survival rate of the animals determined for antitumor activity against P388 Lymphocytic Leukemia system at a dose of 480 mg/kg.
Assay [13] relates to P388. The experiment in a line: Number of Survivors determined for antitumor activity against P388 Lymphocytic Leukemia system on day 5 at a dose of 120 mg/kg (6 out of 6).
Assay [14] deals with P388. The experiment in a line: Survival rate of the animals determined for antitumor activity against P388 Lymphocytic Leukemia system at a dose of 15 mg/kg.
Assay [15] relates to P388. The experiment in a line: Weight difference observed in survivors treated for antitumor activity against P388 Lymphocytic Leukemia system at a dose of 120 mg/kg.
Assay [16] deals with P388. Description: Survival rate of the animals determined for antitumor activity against P388 Lymphocytic Leukemia system at a dose of 30 mg/kg.
Assay [17] relates to P388. The experiment in a line: Number of Survivors determined for antitumor activity against P388 Lymphocytic Leukemia system on day 5 at a dose of 240 mg/kg ([…]).
The test system of assay [18] is P388. Description: Number of Survivors determined for antitumor activity against P388 Lymphocytic Leukemia system on day 5 at a dose of 60 mg/kg (6 out of 6).
Assay [19] has as its system P388. Description: Number of Survivors determined for antitumor activity against P388 Lymphocytic Leukemia system on day 5 at a dose of 96 mg/kg(5 out of 6).
The subject of assay [20] is P388. The experiment in a line: Weight difference observed in survivors treated for antitumor activity against P388 Lymphocytic Leukemia system at a dose of 48 mg/kg.
Assay [21] deals with P388. The experiment in a line: Survival rate of the animals determined for antitumor activity against P388 Lymphocytic Leukemia system at a dose of 96 mg/kg.
For assay [22], the system named is P388. The experiment in a line: Weight difference observed in survivors treated for antitumor activity against P388 Lymphocytic Leukemia system at a dose of 24 mg/kg.
The subject of assay [23] is P388. The experiment in a line: Survival rate of the animals determined for antitumor activity against P388 Lymphocytic Leukemia system at a dose of 192 mg/kg.
Assay [24] deals with P388. The experiment in a line: Weight difference observed in survivors treated for antitumor activity against P388 Lymphocytic Leukemia system at a dose of 192 mg/kg.
Assay [25] has as its system P388. The experiment in a line: Survival rate of the animals determined for antitumor activity against P388 Lymphocytic Leukemia system at a dose of 48 mg/kg.
Assay [26] concerns P388. The experiment in a line: Weight difference observed in survivors treated for antitumor activity against P388 Lymphocytic Leukemia system at a dose of 96 mg/kg.
Assay [27] deals with P388. The experiment in a line: Survival rate of the animals determined for antitumor activity against P388 Lymphocytic Leukemia system at a dose of 84 mg/kg.
Assay [28] concerns P388. Description: Number of Survivors determined for antitumor activity against P388 Lymphocytic Leukemia system on day 5 at a dose of 10.5 mg/kg (6 out of 6).
Assay [29] relates to P388. Description: Survival rate of the animals determined for antitumor activity against P388 Lymphocytic Leukemia system at a dose of 21 mg/kg.
Assay [30] has as its system P388. The experiment in a line: Survival rate of the animals determined for antitumor activity against P388 Lymphocytic Leukemia system at a dose of 10.5 mg/kg.
Assay [31] has as its system P388. Description: Number of Survivors determined for antitumor activity against P388 Lymphocytic Leukemia system on day 5 at a dose of 21 mg/kg(6 out of 6).
Assay [32] deals with P388. Description: Number of Survivors determined for antitumor activity against P388 Lymphocytic Leukemia system on day 5 at a dose of 84 mg/kg(6 out of 6).
Assay [33] has as its system P388. The experiment in a line: Weight difference observed in survivors treated for antitumor activity against P388 Lymphocytic Leukemia system at a dose of 21 mg/kg.
Assay [34] relates to P388. Description: Weight difference observed in survivors treated for antitumor activity against P388 Lymphocytic Leukemia system at a dose of 84 mg/kg.
For assay [35], the system named is P388. The experiment in a line: Weight difference observed in survivors treated for antitumor activity against P388 Lymphocytic Leukemia system at a dose of 42 mg/kg.
Assay [36] concerns P388. The experiment in a line: Number of Survivors determined for antitumor activity against P388 Lymphocytic Leukemia system on day 5 at a dose of 42 mg/kg(6 out of 6).
The test system of assay [37] is P388. The experiment in a line: Number of Survivors determined for antitumor activity against P388 Lymphocytic Leukemia system on day 5 at a dose of 42 mg/kg.
Assay [38] deals with P388. The experiment in a line: Weight difference observed in survivors treated for antitumor activity against P388 Lymphocytic Leukemia system at a dose of 10.5 mg/kg.
In assay [39] the test system is P388. The experiment in a line: Survival rate of the animals determined for antitumor activity against P388 Lymphocytic Leukemia system at a dose of 68 mg/kg.
Assay [40] concerns P388. The experiment in a line: Number of Survivors determined for antitumor activity against P388 Lymphocytic Leukemia system on day 5 at a dose of 17 mg/kg (6 out of 6).
Assay [41] deals with P388. Description: Survival rate of the animals determined for antitumor activity against P388 Lymphocytic Leukemia system at a dose of 17 mg/kg.
In assay [42] the test system is P388. The experiment in a line: Weight difference observed in survivors treated for antitumor activity against P388 Lymphocytic Leukemia system at a dose of 8.5 mg/kg.
Assay [43] concerns P388. Description: Number of Survivors determined for antitumor activity against P388 Lymphocytic Leukemia system on day 5 at a dose of 8.5 mg/kg(6 out of 6).
For assay [44], the system named is P388. Description: Weight difference observed in survivors treated for antitumor activity against P388 Lymphocytic Leukemia system at a dose of 34 mg/kg.
Assay [45] has as its system P388. The experiment in a line: Weight difference observed in survivors treated for antitumor activity against P388 Lymphocytic Leukemia system at a dose of 68 mg/kg.
The test system of assay [46] is P388. Description: Number of Survivors determined for antitumor activity against P388 Lymphocytic Leukemia system on day 5 at a dose of 34 mg/kg (6 out of 6).
The subject of assay [47] is P388. The experiment in a line: Number of Survivors determined for antitumor activity against P388 Lymphocytic Leukemia system on day 5 at a dose of 68 mg/kg(6 out of 6).
In assay [48] the test system is P388. Description: Weight difference observed in survivors treated for antitumor activity against P388 Lymphocytic Leukemia system at a dose of 17 mg/kg.
Assay [49] deals with P388. The experiment in a line: Survival rate of the animals determined for antitumor activity against P388 Lymphocytic Leukemia system at a dose of 34 mg/kg.
Assay [50] has as its system P388. The experiment in a line: Survival rate of the animals determined for antitumor activity against P388 Lymphocytic Leukemia system at a dose of 8.5 mg/kg.
For assay [51], the system named is P388. Description: Number of Survivors determined for antitumor activity against P388 Lymphocytic Leukemia system on day 5 at a dose of 240 mg/kg (6 out of 6).

The record followed here is ChEMBL document CHEMBL1123145, “Synthesis of pyrrolizidine alkaloids indicine, intermedine, lycopsamine, and analogues and their N-oxides. Potential antitumor agents” (1985).

The term T/C denotes the result in the treated group divided by that in the control group, in per cent.

As to `O=C(Cc1ccccc1)OCC1=CCN2CC[C@@H](O)[C@@H]12`, the Survivors in assay [1], in assay [9], in [11], in assay [13], in assay [17] and in assay [18] was 6 throughout. Further, the T/C is recorded as 109% in [2]; 105% in assay [7]; 97% in [10]; 116% in assay [12]; 97% in assay [14]; 99% in [16]. In addition, the T-C in assay [3] is recorded as -0.8; in [4], -0.1; in assay [5] it was -2.1; in [6], -0.3; in assay [8], -0.5; in assay [15], -0.6.
Compound `CC(C)C(O)(C(=O)OCC1=CC[N+]2([O-])CC[C@@H](O)C12)C(C)O` (stereo in doubt; form 2) showed a Survivors in [19] of 5. For the same compound, the T-C in assay [20] is 1.3; in [22], -0.4; in assay [24] it was -4.8; in [26], 0.1. For the same compound, the figures for the T/C in [21], in assay [23] and in assay [25] were 116%, 118% and 100%, respectively.
Turning to `O=C(Cc1ccccc1)OCC1=CC[N+]2([O-])CC[C@@H](O)C12.O=C(OCC1=CC[N+]2([O-])CC[C@@H](O)C12)c1ccccc1` (stereo partly drawn), the T/C amounted to 114% in [27], 108% in assay [29], 104% in [30] and 117% in [37]. Also, the Survivors in assay [28], in assay [31], in assay [32] and in [36] was 6 in each case. Moreover, the T-C in assay [33] is given as -0.1; in assay [34] it was 0.1; in assay [35], 0.3; in assay [38] it was 0.
As for `CC(O)C(C)(O)C(=O)OCC1=CC[N+]2([O-])CC[C@@H](O)[C@@H]12` (stereo partly drawn), the T/C is listed as 131% in [39], 117% in assay [41], 127% in assay [49] and 115% in assay [50]. Moreover, the Survivors in assay [40], in assay [43], in [46] and in [47] was 6 throughout. Also, the T-C was -0.3 in assay [42], -0.4 in assay [44], -0.4 in [45] and 0 in [48].
Consider `CC(C)CC(=O)OCC1=CCN2CC[C@@H](O)[C@@H]12`, for which the Survivors in assay [1], in assay [9], in assay [51], in assay [11], in assay [13] and in [18] was 6 throughout. For the same compound, the T/C was 108% in assay [2]; 108% in assay [7]; 105% in assay [10]; 114% in [12]; 105% in assay [14]; 109% in assay [16]. In addition, the T-C is -0.6 in [3]; -0.8 in [4]; -2.7 in assay [5]; -0.4 in assay [6]; -0.3 in assay [8]; -0.1 in assay [15].
